The values that follow come from US9765074B2, “Inhibitors of the renal outer medullary potassium channel” (Merck Sharp & Dohme Corp., priority 2013, dated 2017).

Each structure is given as a SMILES string.

The target of the assay is T1, hROMK (hKir1.1) (Homo sapiens, UniProt P48048).
T1 construct: expressed in transfected cells
T1 sequence (P48048 1-391): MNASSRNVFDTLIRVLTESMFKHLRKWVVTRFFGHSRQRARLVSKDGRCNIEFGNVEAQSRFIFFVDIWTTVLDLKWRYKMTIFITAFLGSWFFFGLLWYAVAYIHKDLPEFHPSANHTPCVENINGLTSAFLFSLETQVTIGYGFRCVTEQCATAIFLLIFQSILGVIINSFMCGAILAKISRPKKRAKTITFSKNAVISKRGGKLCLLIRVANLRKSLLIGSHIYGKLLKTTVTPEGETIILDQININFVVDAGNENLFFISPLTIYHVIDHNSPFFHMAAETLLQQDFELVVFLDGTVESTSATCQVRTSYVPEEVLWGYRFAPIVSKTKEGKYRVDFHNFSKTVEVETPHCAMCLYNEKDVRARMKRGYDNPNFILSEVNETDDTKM
The assay is described as follows: Thallium Flux Assay (ROMK channel functional thallium flux, FLIPR-Tetra). In kind it is cell-based. The following applies: HEK293 cells stably expressing hROMK (hKir1.1); 30 min compound incubation. Put shortly: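 HEK293 cells stably expressing hKir1.1, loaded with FluxOR dye for 90 min, then preincubated with compound for 30 min at ambient temperature with 0.3 mM ouabain and probenecid. Stimulated with 3 mM thallium/0.3 mM potassium (final); fluorescence read ~10 min. Normalized to 3 μM reference ROMK inhibitor; IC50 from inhibition of flux.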
`CC1=C(N2CCC3(CCN(C[C@@H](O)c4c(F)cc(-n5cnnn5)cc4F)CC3)C2=O)COC1=O` [Example 143, 8-{(2S)-2-[2,6-difluoro-4-(1H-tetrazol-1-yl)phenyl]-2-hydroxyethyl}-2-(4-methyl-5-oxo-2,5-dihydrofuran-3-yl)-1-oxo-2-aza-8-azoniaspiro[4.5]decane]: the IC50 was 190 nM.
Take `COCC1=C(N2CCC3(CCN(C[C@H](O)c4ccc(-n5cnnn5)nc4)CC3)C2=O)COC1=O` [Example 182, 8-{(2R)-2-hydroxy-2-[6-(1H-tetrazol-1-yl)pyridin-3-yl]ethyl}-2-[4-(methoxymethyl)-5-oxo-2,5-dihydrofuran-3-yl]-2,8-diazaspiro[4.5]decan-1-one]: 50 nM corresponded to half-maximal inhibition (IC50).
The same measure for `CC1=C(N2CCC3(CCN(C[C@H](O)c4nnc(-n5cnnn5)cc4C)CC3F)C2=O)COC1=O` (single isomer, unassigned) [Example 198]: 10 nM; for `CC1=C(N2C(=O)C3(CCN(C[C@H](O)c4ccc(-n5cnnn5)cc4C)CC3)CC2C)COC1=O` (single isomer, unassigned) [Example 139]: 40 nM; for `COc1nc(-n2cnnn2)ccc1[C@@H](O)CN1CCC2(CC1)CCN(C1=C(C)C(=O)OC1)C2=O` [Example 149, 8-{(2R)-2-hydroxy-2-[2-methoxy-6-(1H-tetrazol-1-yl)pyridin-3-yl]ethyl}-2-(4-methyl-5-oxo-2,5-dihydrofuran-3-yl)-2,8-diazaspiro[4.5]decan-1-one]: 20 nM.
To `CC1=C(N2CCC3(CCN(C[C@@H](O)c4ccc(-n5cnnn5)nc4)CC3F)C2=O)COC1=O` (single isomer, unassigned) [Example 195] belongs 10 nM.
`CC1=C(N2CCC3(CCN(C[C@H](F)c4ccc(-n5cnnn5)nn4)CC3)C2=O)COC1=O` [Example 278, 8-{(2S)-2-fluoro-2-[6-(1H-tetrazol-1-yl)pyridazin-3-yl]ethyl}-2-(4-methyl-5-oxo-2,5-dihydrofuran-3-yl)-1-oxo-2-aza-8-azoniaspiro[4.5]decane]: the IC50 came to 30 nM. Compared with the last molecule, the IC50 is about 3-fold higher.
To `CC1=C(N2CCC3(CCN(CCc4ncc(-n5cnnn5)nc4C)CC3)C2=O)COC1=O` [Example 252, 2-(4-methyl-5-oxo-2,5-dihydrofuran-3-yl)-8-{2-[3-methyl-5-(1H-tetrazol-1-yl)pyrazin-2-yl]ethyl}-2,8-diazaspiro[4.5]decan-1-one] belongs 10 nM; to `CC1=CN(C2=C(C)C(=O)OC2)C(=O)C12CCN(C[C@H](O)c1ccc(-n3cnnn3)nn1)CC2` [Example 166, 8-{(2S)-2-hydroxy-2-[6-(1H-tetrazol-1-yl)pyridazin-3-yl]ethyl}-4-methyl-2-(4-methyl-5-oxo-2,5-dihydrofuran-3-yl)-1-oxo-2-aza-8-azoniaspiro[4.5]dec-3-ene], 100 nM; to `CC1=C(N2CCC3(CCN(C(C)(C)C(O)c4ccc(-n5cnnn5)nc4)CC3)C2=O)COC1=O` (single isomer, unassigned) [Example 298], 10 nM.
As for `CC1=C(N2CCC3(CCN(C[C@H](O)c4ccc(-n5cnnn5)nc4)CC3F)C2=O)COC1=O` (single isomer, unassigned) [Example 192], half-maximal inhibition (IC50) was put at 10 nM.
The molecule `CC1=C(N2C(=O)C3(CCN(C[C@@H](O)c4ccc(-n5cnnn5)cc4F)CC3)CC2C)COC1=O` (single isomer, unassigned) [Example 142] returned an IC50 of 30 nM.
To `COC1CN(CCc2nnc(-n3cnnn3)cc2C)CCC12CCN(C1=C(C)C(=O)OC1)C2=O` (single isomer, unassigned) [Example 259, 6-methoxy-2-(4-methyl-5-oxo-2,5-dihydrofuran-3-yl)-8-{2-[4-methyl-6-(1H-tetrazol-1-yl)pyridazin-3-yl]ethyl}-2,8-diazaspiro[4.5]decan-1-one] belongs 100 nM.
To `Cc1nc([C@H](O)CN2CCC3(CC2)CCN(C2=CC(=O)OC2)C3=O)ccc1-n1cnnn1` [Example 8, 8-{(2R)-2-hydroxy-2-[6-methyl-5-(1H-tetrazol-1-yl)pyridin-2-yl]ethyl}-1-oxo-2-(5-oxo-2,5-dihydrofuran-3-yl)-2-aza-8-azoniaspiro[4.5]decane] belongs 60 nM; to `CC1=C(N2CC(O)C3(CC4CCC(C3)N4C[C@H](O)c3ccc(-n4cnnn4)nc3)C2=O)COC1=O` (single isomer, unassigned) [Example 104], 120 nM.
The same measure for `CC1=C(N2CCC3(CC4COCC(C3)N4C[C@H](O)c3cnc(-n4cnnn4)cn3)C2=O)COC1=O` (stereo partly drawn) [Example 181, 9-{(2S)-2-hydroxy-2-[5-(1H-tetrazol-1-yl)pyrazin-2-yl]ethyl}-1′-(4-methyl-5-oxo-2,5-dihydrofuran-3-yl)-2′H-spiro[7-oxa-9-azabicyclo[3.3.1]nonane-3,3′-pyrrolidin]-2′-one]: 150 nM; for `CC1=C(N2CC(O)C3(CC4CCC(C3)N4C[C@@H](O)c3ccc(-n4cnnn4)nc3)C2=O)COC1=O` (single isomer, unassigned) [Example 105]: 130 nM; for `Cc1nc(-n2cnnn2)ccc1[C@H](O)CN1CCC2(CC1)CCN(C1=CC(=O)OC1)C2=O` [Example 4, 8-{(2S)-2-hydroxy-2-[2-methyl-6-(1H-tetrazol-1-yl)pyridin-3-yl]ethyl}-1-oxo-2-(5-oxo-2,5-dihydrofuran-3-yl)-2-aza-8-azoniaspiro[4.5]decane]: 50 nM.
In turn, `CC1=C(N2CCC3(CCN(C[C@H](F)c4ccc(-n5cnnn5)cn4)CC3)C2=O)COC1=O` [Example 279, 8-{(2S)-2-fluoro-2-[5-(1H-tetrazol-1-yl)pyridin-2-yl]ethyl}-2-(4-methyl-5-oxo-2,5-dihydrofuran-3-yl)-1-oxo-2-aza-8-azoniaspiro[4.5]decane] showed an IC50 of 20 nM. Compared with the last molecule, the IC50 is about 2.5-fold lower.
The same measure for `CC1CC2(CC3CCC(C2)N3C[C@@H](O)c2ccc(-n3cnnn3)nc2)C(=O)N1C1=CC(=O)OC1` (single isomer, unassigned) [Example 101]: 6 nM.
Molecule `COC1CN(C2=C(C)C(=O)OC2)C(=O)C12CC1CCC(C2)N1C[C@H](O)c1ccc(-n2cnnn2)nc1` (single isomer, unassigned) [Example 161] displayed an IC50 of 30 nM.
To `CC1CC2(CC3CCC(C2)N3C[C@H](O)c2ccc(-n3cnnn3)nc2)C(=O)N1C1=CC(=O)OC1` (single isomer, unassigned) [Example 102] belongs 10 nM; to `CC1=C(N2CCC3(CCN(C[C@H](O)c4ccnc(-n5cnnn5)c4)CC3)C2=O)COC1=O` [Example 129, 8-{(2R)-2-hydroxy-2-[2-(1H-tetrazol-1-yl)pyridin-4-yl]ethyl}-2-(4-methyl-5-oxo-2,5-dihydrofuran-3-yl)-1-oxo-2-aza-8-azoniaspiro[4.5]decane], 140 nM; to `CC1=C(N2C(=O)C3(CCN(C[C@H](O)c4ncc(-n5cnnn5)cc4C)CC3)CC2C)COC1=O` (single isomer, unassigned) [Example 137], 80 nM.
The same measure for `CC1=C(N2CCC3(CCN(C[C@@H](O)c4ncc(-n5cnnn5)cn4)CC3)C2=O)COC1=O` [Example 41, 8-{(2R)-2-hydroxy-2-[5-(1H-tetrazol-1-yl)pyrimidin-2-yl]ethyl}-2-(4-methyl-5-oxo-2,5-dihydrofuran-3-yl)-1-oxo-2-aza-8-azoniaspiro[4.5]decane]: 160 nM; for `COC1CN(C2=CC(=O)OC2)C(=O)C12CCN(C[C@H](O)c1ccc(-n3cnnn3)nc1)CC2` (mixture of isomers) [Example 207, 8-((R)-2-(6-(1H-tetrazol-1-yl)pyridin-3-yl)-2-hydroxyethyl)-4-methoxy-2-(5-oxo-2,5-dihydrofuran-3-yl)-2,8-diazaspiro[4.5]decan-1-one]: 40 nM; for `COc1cc(-n2cnnn2)ccc1[C@H](O)CN1CCC2(CC1)CCN(C1=CC(=O)OC1)C2=O` [Example 16, 8-{(2S)-2-hydroxy-2-[2-methoxy-4-(1H-tetrazol-1-yl)phenyl]ethyl}-1-oxo-2-(5-oxo-2,5-dihydrofuran-3-yl)-2-aza-8-azoniaspiro[4.5]decane]: 20 nM.
To `CC1=C(N2C(=O)C3(CCN(C[C@H](O)c4cnc(-n5cnnn5)nc4)CC3)CC2C)COC1=O` (single isomer, unassigned) [Example 113] belongs 80 nM.
`CC1=C(N2C(=O)C3(CCN(C[C@H](O)c4ccc(-n5cnnn5)cc4F)CC3)CC2C)COC1=O` (single isomer, unassigned) [Example 141] came in with a 50% inhibitory concentration (IC50) of 30 nM.
`CC1=C(N2CCC3(CC4COCC(C3)N4CCc3ccc(-n4cnnn4)nn3)C2=O)COC1=O` [Example 239, (1R,5S,9r)-1′-(4-methyl-5-oxo-2,5-(dihydrofuran-3-yl)-2′-oxo-9-{2-[6-(1H-tetrazol-1-yl)pyridazin-3-yl]ethyl}spiro[7-oxa-9-azoniabicyclo[3.3.1]nonane-3,3′-pyrrolidine]] had an IC50 of 320 nM.
The same measure for `CC1=C(N2C(=O)C3(CC2C)CC2CCC(C3)N2C[C@@H](O)c2ccc(-n3cnnn3)nc2)COC1=O` (single isomer, unassigned) [Example 136]: 80 nM; for `CO[C@H](CN1CCC2(CC1)CCN(C1=C(C)C(=O)OC1)C2=O)c1cnc(-n2cnnn2)cn1` [Example 281, 8-{(2R)-2-methoxy-2-[5-(1H-tetrazol-1-yl)pyrazin-2-yl]ethyl}-2-(4-methyl-5-oxo-2,5-dihydrofuran-3-yl)-1-oxo-2-aza-8-azoniaspiro[4.5]decane]: 140 nM.

One may read the IC50 as the concentration at which inhibition is half-maximal.
